Measured values taken from US6914045B2, “Glycopeptide antibiotics” (Wyeth Holdings Corporation, priority 2001, dated 2005).
≈ marks a conversion by molar mass, not a printed value.

Tests used:
Experiment in all cases: in vitro antibacterial evaluation, MIC by broth dilution
Assay type in all cases: cell-based
[1] = test system: Enterococcus sp.; details: broth dilution, 18 hours at 35° C.
Summary of the method: (§1)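 Broth dilution per NCCLS standard M7-A2 in Muller-Hinton II […], with an inoculum of 5×10^5 CFU/mL and antibiotic spanning 64-0.06 μg/mL. The MIC is the lowest concentration that inhibits growth of the organism.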

[2] = test system: Escherichia coli
Summary of the method: as §1

[3] = test system: Staphylococcus sp.; details: broth dilution, 18 hours at 35° C.; for MIC Staphylococcus aureus (GC 1131): strain GC 1131
Summary of the method: as §1

[4] = test system: Streptococcus sp.; details: broth dilution, 18 hours at 35° C.
Summary of the method: as §1

## CSc1ccc(C2OCC3OC(OC4C(CO)OC(Oc5ccc(CC6NC(=O)C(C(C)c7ccccc7)NC(=O)CNC(=O)C(CO)NC(=O)C(C(O)C7CNC(=N)N7C7OC(CO)C(O)C(O)C7O)NC(=O)C(C(O)C7CNC(=N)N7)NC6=O)cc5)C(O)C4O)C(O)C(O)C3O2)cc1 (centres unmarked) [Example 144]
[1]; Enterococcus avium (GC 4558)
  MIC Enterococcus avium (GC 4558): 4 µg/mL (≈ 2.8 µM)
[1]; Enterococcus faecalis (ATCC 29212)
  MIC Enterococcus faecalis (ATCC 29212): 2 µg/mL (≈ 1.4 µM)
[1]; Enterococcus faecalis (GC 2242)
  MIC Enterococcus faecalis (GC 2242): 2 µg/mL (≈ 1.4 µM)
[1]; Enterococcus faecalis (GC 2691)
  MIC Enterococcus faecalis (GC 2691): 2 µg/mL (≈ 1.4 µM)
[1]; Enterococcus faecalis (GC 3059)
  MIC Enterococcus faecalis (GC 3059): 4 µg/mL (≈ 2.8 µM)
[1]; Enterococcus faecalis (GC 4552)
  MIC Enterococcus faecalis (GC 4552): 2 µg/mL (≈ 1.4 µM)
[1]; Enterococcus faecalis (GC 4553)
  MIC Enterococcus faecalis (GC 4553): 4 µg/mL (≈ 2.8 µM)
[1]; Enterococcus faecalis (GC 4554)
  MIC Enterococcus faecalis (GC 4554): 4 µg/mL (≈ 2.8 µM)
[1]; Enterococcus faecalis (GC 6189)
  MIC Enterococcus faecalis (GC 6189): 2 µg/mL (≈ 1.4 µM)
[1]; Enterococcus faecium (GC 2243)
  MIC Enterococcus faecium (GC 2243): 2 µg/mL (≈ 1.4 µM)
[1]; Enterococcus faecium (GC 4556)
  MIC Enterococcus faecium (GC 4556): 2 µg/mL (≈ 1.4 µM)
[1]; Enterococcus faecium (GC 4557)
  MIC Enterococcus faecium (GC 4557): 2 µg/mL (≈ 1.4 µM)
[1]; strain ATCC 29212
  MIC Enterococcus faecalis (ATCC 29212): 2 µg/mL (≈ 1.4 µM)
[1]; strain GC 2242
  MIC Enterococcus faecalis (GC 2242): 2 µg/mL (≈ 1.4 µM)
[1]; strain GC 2243
  MIC Enterococcus faecium (GC 2243): 2 µg/mL (≈ 1.4 µM)
[1]; strain GC 2691
  MIC Enterococcus faecalis (GC 2691): 2 µg/mL (≈ 1.4 µM)
[1]; strain GC 3059
  MIC Enterococcus faecalis (GC 3059): 4 µg/mL (≈ 2.8 µM)
[1]; strain GC 4552
  MIC Enterococcus faecalis (GC 4552): 2 µg/mL (≈ 1.4 µM)
[1]; strain GC 4553
  MIC Enterococcus faecalis (GC 4553): 4 µg/mL (≈ 2.8 µM)
[1]; strain GC 4554
  MIC Enterococcus faecalis (GC 4554): 4 µg/mL (≈ 2.8 µM)
[1]; strain GC 4556
  MIC Enterococcus faecium (GC 4556): 2 µg/mL (≈ 1.4 µM)
[1]; strain GC 4557
  MIC Enterococcus faecium (GC 4557): 2 µg/mL (≈ 1.4 µM)
[1]; strain GC 4558
  MIC Enterococcus avium (GC 4558): 4 µg/mL (≈ 2.8 µM)
[1]; strain GC 6189
  MIC Enterococcus faecalis (GC 6189): 2 µg/mL (≈ 1.4 µM)
[2]; strain ATCC 25922, 18 hours at 35° C.
  MIC Escherichia coli (ATCC 25922): 32 µg/mL (≈ 22.4 µM)
[2]; strain GC 4559, 18 hours at 35° C.
  MIC Escherichia coli (GC 4559): 32 µg/mL (≈ 22.4 µM)
[3]; inoculum 5×10^5 CFU/mL
  MIC Staphylococcus aureus (GC 1131): 1 µg/mL (≈ 0.7 µM)
[3]; strain ATCC 29213
  MIC Staphylococcus aureus (ATCC 29213): 2 µg/mL (≈ 1.4 µM)
[3]
  MIC Staphylococcus aureus (GC 1131): 1 µg/mL (≈ 0.7 µM)
[3]; strain GC 3051
  MIC Staphylococcus aureus (GC 3051): 1 µg/mL (≈ 0.7 µM)
[3]; strain GC 3053
  MIC Staphylococcus aureus (GC 3053): 1 µg/mL (≈ 0.7 µM)
[3]; strain GC 4541
  MIC Staphylococcus aureus (GC 4541): 0.5 µg/mL (≈ 0.35 µM)
[3]; strain GC 4542
  MIC Staphylococcus aureus (GC 4542): 0.5 µg/mL (≈ 0.35 µM)
[3]; strain GC 4543
  MIC Staphylococcus aureus-SMITH (GC 4543): 1 µg/mL (≈ 0.7 µM)
[3]; strain GC 4544
  MIC Staphylococcus aureus (GC 4544): 4 µg/mL (≈ 2.8 µM)
[3]; strain GC 4545
  MIC Staphylococcus aureus (GC 4545): 1 µg/mL (≈ 0.7 µM)
[3]; strain GC 4546
  MIC Staphylococcus haemolyticus (GC 4546): 1 µg/mL (≈ 0.7 µM)
[3]; strain GC 4547
  MIC Coagulase Negative Staphylococcus (GC 4547): 1 µg/mL (≈ 0.7 µM)
[3]; strain GC 4548
  MIC Coagulase Negative Staphylococcus (GC 4548): 0.25 µg/mL (≈ 0.175 µM)
[3]; strain GC 4549
  MIC Coagulase Negative Staphylococcus (GC 4549): 0.12 µg/mL (≈ 0.0839 µM)
[3]; strain GC 4551
  MIC Coagulase Negative Staphylococcus (GC 4551): 0.5 µg/mL (≈ 0.35 µM)
[3]; strain GC 6257
  MIC Coagulase Negative Staphylococcus (GC 6257): 0.25 µg/mL (≈ 0.175 µM)
[3]; strain SMITH GC 4543
  MIC Staphylococcus aureus-SMITH (GC 4543): 1 µg/mL (≈ 0.7 µM)
[4]; Streptococcus agalactiae (GC 4564)
  MIC Streptococcus agalactiae (GC 4564): <0.06 µg/mL
[4]; Streptococcus pneumoniae (ATCC 6301)
  MIC Streptococcus pneumoniae (ATCC 6301): <0.06 µg/mL
[4]; Streptococcus pneumoniae (GC 1894)
  MIC Streptococcus pneumoniae (GC 1894): <0.06 µg/mL
[4]; Streptococcus pneumoniae (GC 4565)
  MIC Streptococcus pneumoniae (GC 4565): <0.06 µg/mL
[4]; Streptococcus pyogenes (GC 4563)
  MIC Streptococcus pyogenes (GC 4563): <0.06 µg/mL
[4]; strain ATCC 6301
  MIC Streptococcus pneumoniae (ATCC 6301): <0.06 µg/mL
[4]; strain GC 1894
  MIC Streptococcus pneumoniae (GC 1894): <0.06 µg/mL
[4]; strain GC 4563
  MIC Streptococcus pyogenes (GC 4563): <0.06 µg/mL
[4]; strain GC 4564
  MIC Streptococcus agalactiae (GC 4564): <0.06 µg/mL
[4]; strain GC 4565
  MIC Streptococcus pneumoniae (GC 4565): <0.06 µg/mL
